These results are taken from BindingDB's records for doi:10.1210/endo.135.6.7988476 (Mcgill University, 1994).

Test [1] concerns the target Somatostatin receptor type 3 (Homo sapiens, UniProt P32745).
The target of test [2] is Somatostatin receptor type 1 (Homo sapiens, UniProt P30872).
For test [3], the target named is Somatostatin receptor type 2 (Homo sapiens, UniProt P30874).
Test [4] addresses Somatostatin receptor type 4 (Homo sapiens, UniProt P31391).

Bridge positions count the residues as written; N and C are the ends. Square brackets hold non-standard residues; d marks the D form. Peptide text beside a SMILES is read from it. * marks the point of attachment. NH(1-naphthylmethyl) = c1ccc2c(CN*)cccc2c1; 1Nal = N[CH](Cc1cccc2ccccc12)C(=O)O; Thr(ol) = C[CH](O)[CH](N)CO

Somatostatin receptor type 3, sequence (P32745 whole entry): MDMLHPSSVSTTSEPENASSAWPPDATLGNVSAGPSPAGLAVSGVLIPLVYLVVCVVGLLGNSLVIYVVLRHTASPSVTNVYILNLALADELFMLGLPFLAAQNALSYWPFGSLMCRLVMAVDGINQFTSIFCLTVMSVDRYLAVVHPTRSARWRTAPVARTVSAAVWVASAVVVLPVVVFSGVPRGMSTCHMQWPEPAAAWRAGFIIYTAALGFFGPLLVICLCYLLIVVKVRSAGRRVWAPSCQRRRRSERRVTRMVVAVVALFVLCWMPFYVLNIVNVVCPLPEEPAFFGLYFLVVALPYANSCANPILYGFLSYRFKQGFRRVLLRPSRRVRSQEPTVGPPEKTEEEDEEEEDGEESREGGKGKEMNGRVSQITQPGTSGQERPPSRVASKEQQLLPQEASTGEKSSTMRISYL
Somatostatin receptor type 4, sequence (P31391 whole entry): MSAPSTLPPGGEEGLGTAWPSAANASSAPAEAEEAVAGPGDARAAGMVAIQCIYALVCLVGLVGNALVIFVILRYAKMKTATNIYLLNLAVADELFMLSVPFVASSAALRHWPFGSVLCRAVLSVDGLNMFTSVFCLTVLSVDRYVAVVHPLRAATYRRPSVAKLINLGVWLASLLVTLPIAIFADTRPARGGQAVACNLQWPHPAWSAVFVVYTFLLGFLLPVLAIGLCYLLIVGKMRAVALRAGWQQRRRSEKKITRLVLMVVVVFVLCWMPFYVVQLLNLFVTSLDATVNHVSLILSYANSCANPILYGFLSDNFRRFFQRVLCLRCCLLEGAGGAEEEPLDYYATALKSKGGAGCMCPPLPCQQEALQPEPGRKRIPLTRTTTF
Somatostatin receptor type 2, sequence (P30874 whole entry): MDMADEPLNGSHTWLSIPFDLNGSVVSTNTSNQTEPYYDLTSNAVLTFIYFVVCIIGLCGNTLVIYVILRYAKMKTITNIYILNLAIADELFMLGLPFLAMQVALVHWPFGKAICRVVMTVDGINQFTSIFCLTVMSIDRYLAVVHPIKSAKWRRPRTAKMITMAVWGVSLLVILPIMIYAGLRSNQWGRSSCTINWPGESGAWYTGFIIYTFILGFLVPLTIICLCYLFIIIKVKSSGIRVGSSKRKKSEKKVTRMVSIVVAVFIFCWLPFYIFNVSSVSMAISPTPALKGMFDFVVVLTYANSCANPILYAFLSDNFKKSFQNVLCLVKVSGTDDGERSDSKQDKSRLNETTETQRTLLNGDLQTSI
Somatostatin receptor type 1, sequence (P30872 whole entry): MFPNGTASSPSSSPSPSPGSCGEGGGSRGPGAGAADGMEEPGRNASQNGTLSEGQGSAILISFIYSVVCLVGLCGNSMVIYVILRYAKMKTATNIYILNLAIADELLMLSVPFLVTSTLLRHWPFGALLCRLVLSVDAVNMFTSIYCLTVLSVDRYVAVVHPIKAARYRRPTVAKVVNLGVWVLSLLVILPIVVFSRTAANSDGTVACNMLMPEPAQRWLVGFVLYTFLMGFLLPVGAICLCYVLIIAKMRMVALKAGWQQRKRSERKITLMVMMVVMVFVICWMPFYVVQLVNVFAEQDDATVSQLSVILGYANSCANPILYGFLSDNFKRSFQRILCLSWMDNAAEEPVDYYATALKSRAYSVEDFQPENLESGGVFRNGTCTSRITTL

As a reminder, the Ki is the equilibrium dissociation constant of an inhibitor or competing ligand from its target. High values mean lower affinity, low ones higher affinity. Consider `CC(C)C1NC(=O)C(CCCCN)NC(=O)C(Cc2c[nH]c3ccccc23)NC(=O)C(Cc2ccc(O)cc2)NC(=O)C(NC(=O)C(N)Cc2cccc3ccccc23)CSSCC(C(=O)NC(CO)C(C)O)NC1=O` (configuration not stated) [DC23-60] (H-[1Nal]CYWKVC[Thr(ol)]; disulfide 2-7; configuration not given here), for which the Ki in test [1] is 73 nM; in test [2] it was 70.4 nM; in test [3] it was 0.26 nM; in test [4], 1000 nM.
With `CC(C)C[C@H](NC(=O)[C@H](C)NC(=O)[C@@H]1CCCN1C(=O)[C@H](CC(N)=O)NC(=O)[C@H](CO)NC(=O)[C@H](CC(N)=O)NC(=O)[C@H](C)NC(=O)[C@@H](N)CO)C(=O)N[C@@H](C)C(=O)N1CCC[C@H]1C(=O)N[C@@H](CCCN=C(N)N)C(=O)N[C@@H](CCC(=O)O)C(=O)N[C@@H](CCCN=C(N)N)C(=O)N[C@@H](CCCCN)C(=O)N[C@@H](C)C(=O)NCC(=O)N[C@H]1CSSC[C@@H](C(=O)O)NC(=O)[C@H](CO)NC(=O)[C@H]([C@@H](C)O)NC(=O)[C@H](Cc2ccc(O)cc2)NC(=O)[C@H]([C@@H](C)O)NC(=O)[C@H](CCCCN)NC(=O)[C@@H](Cc2c[nH]c3ccccc23)NC(=O)[C@H](Cc2ccccc2)NC(=O)[C@H](Cc2ccccc2)NC(=O)[C@H](CC(N)=O)NC(=O)[C@H](CCCCN)NC1=O` [Leu8, D-Trp22, Tyr25 SST-28] (H-SANSNPALAPRERKAGCKNFF[dW]KTYTSC-OH; disulfide 17-28), the Ki in test [1] worked out at 0.16 nM; in test [2], 0.41 nM; in test [3], 0.18 nM; in test [4], 0.03 nM.
On the same counts, the results for `NCCCCC1NC(=O)C(Cc2c[nH]c3ccccc23)NC(=O)C(Cc2ccc(O)cc2)NC(=O)C(NC(=O)C(N)Cc2ccccc2)CSSCC(C(=O)NCc2cccc3ccccc23)NC(=O)C(CO)NC1=O` (configuration not stated) [NC4-28B] (H-FCYWKSC-{NH(1-naphthylmethyl)}; disulfide 2-7; configuration not given here) are 8.9 nM, 37.4 nM, 4.4 nM and 195 nM.
